Among the data in patent US9029399B2, “17α-hydroxylase/C17,20-lyase inhibitors” (Novartis AG, priority 2011, dated 2015) are IC50 values, retold here.

Chain of Human CYP17 enzyme (Cytochrome P450, 17-20 lyase) (P05093 whole entry): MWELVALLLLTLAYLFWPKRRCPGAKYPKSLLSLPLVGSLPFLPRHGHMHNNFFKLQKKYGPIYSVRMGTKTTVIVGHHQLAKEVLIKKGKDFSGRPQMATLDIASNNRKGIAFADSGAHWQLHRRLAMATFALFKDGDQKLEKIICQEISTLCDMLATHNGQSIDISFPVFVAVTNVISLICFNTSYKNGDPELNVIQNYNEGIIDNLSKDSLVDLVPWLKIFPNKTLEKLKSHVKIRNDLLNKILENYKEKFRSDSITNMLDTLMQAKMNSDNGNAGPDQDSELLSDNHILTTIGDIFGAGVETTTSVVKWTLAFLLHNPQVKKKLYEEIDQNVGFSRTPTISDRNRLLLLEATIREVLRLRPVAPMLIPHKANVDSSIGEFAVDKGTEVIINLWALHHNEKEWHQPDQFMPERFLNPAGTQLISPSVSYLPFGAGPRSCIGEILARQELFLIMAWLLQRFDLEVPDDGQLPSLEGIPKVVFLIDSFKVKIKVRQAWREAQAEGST

The experiment has as its target Human CYP17 enzyme (Cytochrome P450, 17-20 lyase) (Homo sapiens (Human), UniProt P05093). As to the kind of experiment: CYP17 lyase assay, recombinant human CYP17 enzyme, 17-α-hydroxy pregnenolone [21-3H] substrate. As to conditions: recombinant human CYP17, first value of Human/Rat cell; read-out: Lyase IC 50 Human. Type of experiment: biochemical. The text has this:
1) Cvtochrome P450, 17-20 Lyase (CYP17-Lyase) Assay Development Using Recombinant Human CYP17 Enzyme and 17-α-Hydroxy Pregnenolone [21-3H] as the Substrate
Cytochrome P450, 17-α-Hydroxylase, 17-20 lyase (CYP17) is a multi functional enzyme that plays a key role in the biosynthesis of steroid hormones. […] In the hydroxylation reaction, it converts progesterone and pregnenolone to the corresponding hydroxylated products 17-α-hydroxy progesterone and 17-α-hydroxy pregnenolone. In the lyase reaction, it catalyzes the conversion of these hydroxylated substrates to Androstenedione and Dehydroepiandrosterone (DHEA) respectively. In the Cyp17 lyase assay described here, the conversion of 17-α-hydroxy pregnenolone to Dehydroepiandrosterone and acetic acid is being monitored.
The conversion of 17-α-hydroxy pregnenolone to Dehydroepiandrosterone is accompanied by the release of acetic acid. In the Cyp17 lyase assay, 17-α-hydroxy pregnenolone labeled with tritium (3H) at position 21 is used as the substrate. Chloroform extraction removes the radioactive steroids and acetic acid is taken into aqueous layer. The tritiated acetic acid released in the assay thus extracted is quantified to determine the enzyme activity.
Human Cyp 17 gene was cloned and expressed in Adenoviral expression system in A549 cell lines. The purified cell membrane preparations were used as the source for Human CYP17 enzyme. Total protein concentration: 8 mg/mL.
For routine screening, the assay was set up with 16 μg of enzyme in 50 μL reaction volume. 17α-hydroxy pregnenolone [21-3H] was added to a final concentration of […] NADPH is used at a final concentration of 4.2 mM. Total reaction volume was made up to 50 μL with 50 mM Phosphate buffer pH 7.5. The reaction mixture was incubated at room temperature for 90 minutes with gentle shaking. The reaction was stopped by the addition of 100 μl, of buffer. 500 μl, of 5% freshly prepared activated charcoal was added to the solution and mixed well by vortexing. The samples were centrifuged at 17568×g for 5 minutes. (14000 rpm). The supernatant was carefully transferred to fresh tube and 1.3 mL of scintillation fluid was added, mixed by vortexing.
The measurements were carried out in 2.0 mL Eppendorf™ tubes. Each tube was counted for 1 minute. The amount of tritiated acetic acid released is proportional to the lyase activity. Percent lyase activity in presence of inhibitor was calculated using the formula given below.
[formula] Sample: Enzyme reaction in presence of inhibitor. Positive control: Enzyme reaction without inhibitor but containing DMSO at 1% final concentration. Blank—Contains all reagents except enzyme. % Inhibition=100%−% Lyase activity
For IC50 determination, the % inhibition was plotted as a function of inhibitor concentration. The data was fitted to sigmoidal equation using Graphpad Prism® software IV to generate IC50 values.
Regarding `O=C1N(c2cc(C3CC3)nc(C(F)(F)F)c2)CCN1c1cnccc1C1CC1` [Example 48A, 1-(2-cyclopropyl-6-(trifluoromethyl)pyridin-4-yl)-3-(4-cyclopropylpyridin-3-yl)imidazolidin-2-one], the IC50 turned out to be 4.75 nM.

Take `O=C1N(c2ccnc(Cl)c2)[C@@H]2C[C@@H]2N1c1cnccc1C1CC1` [Example 30A-I, (1R,5S)-2-(2-chloropyridin-4-yl)-4-(4-cyclopropylpyridin-3-yl)-2,4-diazabicyclo[3.1.0]hexan-3-one]: the IC50 was determined as 161 nM.

As for `Cc1cc(N2CCN(c3cnccc3C3CC3)C2=O)ncc1F` [Example 42A, 1-(4-cyclopropylpyridin-3-yl)-3-(5-fluoro-4-methylpyridin-2-yl)imidazolidin-2-one], the IC50 amounted to 22 nM.

As for `O=C1N(c2cccc(C(F)(F)F)c2)CCN1c1cnccc1C1CC1` [Example 5A, 1-(4-cyclopropylpyridin-3-yl)-3-(3-(trifluoromethyl)phenyl)imidazolidin-2-one], the IC50 was 6 nM.

For the compound `O=C1N(c2cc(F)c3ccsc3c2)CCN1c1cnccc1C1CC1` [Example 26A, 1-(4-cyclopropyl-pyridin-3-yl)-3-(4-fluoro-benzo[b]thiophen-6-yl)imidazolidin-2-one], the IC50 was determined as 6 nM.

`O=C1N(c2ccnc(C(F)(F)F)c2)[C@@H]2C[C@@H]2N1c1cnccc1C1CC1` [Example 32A-I, (1S,5R)-2-(4-cyclopropylpyridin-3-yl)-4-(2-(trifluoromethyl)pyridin-4-yl)-2,4-diazabicyclo[3.1.0]hexan-3-one]: the IC50 was determined as 184 nM.

Turning to `O=C1N(c2cccc(C(F)(F)F)c2)CCN1c1cnccc1C1(O)CC1` [Example 36A, 1-[4-(1-hydroxy-cyclopropyl)-pyridin-3-yl]-3-(3-trifluoromethyl-phenyl)-imidazolidin-2-one], the IC50 is 27 nM.

As for `O=C1N(c2cc(Cl)nc(Cl)c2)CCN1c1cnccc1C1CC1` [Example 46A, 1-(4-cyclopropylpyridin-3-yl)-3-(2,6-dichloropyridin-4-yl)imidazolidin-2-one], the IC50 was 1.9 nM.

Consider `O=C1N(c2ccc3sc(F)cc3c2)CCN1c1cnccc1C1CC1` [Example 14A, 1-(4-cyclopropylpyridin-3-yl)-3-(2-fluorobenzo[b]thiophen-5-yl)imidazolidin-2-one], for which the IC50 is 26 nM.

Regarding `Cc1csc2ccc(N3CCN(c4cnccc4C4CC4)C3=O)cc12` [Example 15A, 1-(4-cyclopropylpyridin-3-yl)-3-(3-methylbenzo[b]thiophen-5-yl)imidazolidin-2-one], the IC50 is 6.7 nM.

For `O=C1N(c2cc(C(F)(F)F)ccn2)CCN1c1cnccc1C1CC1` [Example 8A, 1-(4-cyclopropylpyridin-3-yl)-3-(4-(trifluoromethyl)pyridin-2-yl)imidazolidin-2-one], the IC50 was 22 nM.

Turning to `Cc1nccc(N2CCN(c3cnccc3C3CC3)C2=O)n1` [Example 44A, 1-(4-cyclopropylpyridin-3-yl)-3-(2-methylpyrimidin-4-yl)imidazolidin-2-one], the IC50 stood at 397 nM.

Turning to `O=C1N(c2ccc3scc(C(F)(F)F)c3c2)CCN1c1cnccc1C1CC1` [Example 13A, 1-(4-cyclopropylpyridin-3-yl)-3-(3-(trifluoromethyl)benzo[b]thiophen-5-yl)imidazolidin-2-one], the IC50 came out at 11 nM.

Consider `Cc1coc2ccc(N3CCN(c4cnccc4C4CC4)C3=O)cc12` [Example 19A, 1-(4-cyclopropylpyridin-3-yl)-3-(3-methylbenzofuran-5-yl)imidazolidin-2-one], for which the IC50 worked out at 2.7 nM.

Regarding `O=C1N(c2cnccc2C2CC2)[C@@H]2C[C@@H]2N1c1ccnc(Cl)c1` [Example 30A-II, (1S,5R)-2-(2-chloropyridin-4-yl)-4-(4-cyclopropylpyridin-3-yl)-2,4-diazabicyclo[3.1.0]hexan-3-one], the IC50 worked out at 6 nM.

With `O=C1N(c2ccnc(C3CC3)n2)CCN1c1cnccc1C1CC1` [Example 43A, 1-(4-cyclopropylpyridin-3-yl)-3-(2-cyclopropylpyrimidin-4-yl)imidazolidin-2-one], the IC50 was determined as 36 nM.
